# In patent publication US6933310B1, “Therapeutic agent for amyotrophic lateral sclerosis (ALS)” (Mitsubishi Pharma Corporation, priority 2000, dated 2005):
# Legend:
# [1] = National Cancer Institute Report, 89, 1978; cited from earlier work
# Wobbler mice [2] = assay: Weight and morphology of right brachial biceps muscle in Wobbler mice; assay type: in vivo, mouse; settings: 10 mg/kg orally, 4 weeks
# From the text: (§1) Wobbler mice (Ikeda K. et al., Ann. Neurol. vol. 34, p304, 1993; Mitsumoto H. et al., Ann. Neurol. vol. 36, pp142 to 148, 1994; Mitsumoto H. et al., Science, vol. 265, pp1107 to 1110, 1994) were used.
# (§2) At 3 to 4 weeks old, with the development of the symptom of body tremors, Wobbler mice were diagnosed with the onset of the disease. Immediately after being diagnosed to have the beginnings of the disease, the mice were orally administered with the drug of the present invention (3-methyl-1-phenyl-2-pirazoline-5-on; also referred to as MCI-186 in the drawings) (10 mg/kg), and the mice of a control group were administered with vehicles, by a blind test continually for 4 weeks. The administration of the drug was completed at 7 to 8 weeks old after birth, and the test was conducted with n=10 for each test group.
# After the end of drug administration, Wobbler mice (n=10 per group) were ether anesthetized, and then the right brachial biceps muscles were excised under dissecting microscope. The excised biceps muscles were correctly measured, and then frozen. […]
# (§3) The scale of the degree of forelimb deformity was analyzed by the non-parametric Wilcoxon signed rank-sum test. Muscle strength, weight of biceps muscle, mean diameter of muscle fibers and number of motor neurons were statistically analyzed by unpaired Student's t-test. […]
# Wobbler mice [3] = assay: Forelimb deformity grading in Wobbler mice; assay type: in vivo, mouse; settings: 10 mg/kg orally, 4 weeks, vs control group (FIG. 1)
# From the text: as §1, §2
# The degree of forelimb deformity was classified into four grades: 1 (paw atrophy), 2 (curled digits), 3 (curled wrists), and 4 (forelimb flexion to chest), and then evaluated. The progress from 1 to 4 means that the symptom became worse.
# The scale of the degree of forelimb deformity was analyzed by the non-parametric Wilcoxon signed rank-sum test. Muscle strength, weight of biceps muscle, mean diameter of muscle fibers and number of motor neurons were statistically analyzed by unpaired Student's t-test. In all tests, the significance level of 5% was set for both sides.
# Wobbler mice [4] = assay: Number of spinal motor neurons in Wobbler mice; assay type: in vivo, mouse; settings: 10 mg/kg orally, 4 weeks, cervical spinal cord C5-6, vs control group (FIG. 4)
# From the text: as §1, §2
# Wobbler mice (n=10 per group) that had been used for morphological study on the right brachial biceps muscles were perfused via an intracardiac catheter with phosphate buffered saline, and then 4% paraformaldehyde/1% glutaraldehyde/0.1 M sodium phosphate buffer (pH 7.4). […]
# as §3
# Wobbler mice [5] = assay: Forelimb grip strength in Wobbler mice; assay type: in vivo, mouse; settings: 10 mg/kg orally, 4 weeks, vs control group (FIG. 2)
# From the text: as §1
# as §2, with “The administration of the drug was completed at 7 to 8 weeks old after birth, and the test was conducted with n=10 for each test group.” left out
# The grip strength of the forelimb was measured (Ikeda et al., Neuromusc. Disord., 5, (1995), 383–390; K. Ikeda et al., J. Neurol. Sci., 160, (1998) 9–15; K. Ikeda et al., Neurosci. Lett., 250 (1998) 9–12; K. Ikeda et al., Muscle Nerve, 18 (1995) 1344–1347; K. Ikeda et al., Neurol. Res., 17 (1995) 445–448; K. Ikeda et al., Ann. Neurol., 37 (1995) 505–511; K. Ikeda et al., Brain Res., 726 (1996) 91–97; H. Mitsumoto et al., Ann. Neurol., 36 (1994) 142–148; and H. Mitsumoto et al., Science, 265 (1994) 1107–1110). […]
# The scale of the degree of forelimb deformity was analyzed by the non-parametric Wilcoxon signed rank-sum test. […]
# mouse = settings: intraabdominal administration; cited from earlier work
# ALS = settings: some reported test results; cited from earlier work
# ALS patients = settings: administered intraspinally to ALS patients; cited from earlier work
molecule,measurement,setting,value
CC1=NN(c2ccccc2)C(=O)C1 [3-methyl-1-phenyl-2-pirazoline-5-on],carcinogenicity,[1],noncarcinogenicity
same,mean diameter of muscle fibers (mean±SEM),"Wobbler mice [2]; right brachial biceps, P<0.01 vs control 16.8±0.6 μm",20.3±0.8 μm
same,weight of the right brachial biceps muscle,Wobbler mice [2]; vs control group (FIG. 3),significantly increased
same,degree of forelimb deformity (Grades 1 to 4),Wobbler mice [3],the progress of muscle deformity was delayed
same,number of spinal motor neurons,Wobbler mice [4],increased
same,muscle strength of the forelimb (grip strength),Wobbler mice [5],the decrease in muscle strength was delayed
same,LD50,mouse,2012 mg/kg
Nc1nc2ccc(OC(F)(F)F)cc2s1 [riluzole],effectiveness against ALS,ALS,effectiveness against ALS could not be confirmed
human recombinant Cu/Zn SOD: human recombinant Cu/Zn superoxide dismutase administered intraspinally to ALS patients,therapeutic effect in ALS patients,ALS patients,effective therapeutic effects were not obtained
